Reference: patent US20230276817A1, “PREPARATION AND METHOD FOR IMPROVING RiNG ROT RESISTANCE OF APPLE FRUITS” (Shandong Institute of Pomology, priority 2022, published 2023)

What was measured:
Assay type in all cases: in vivo
Botryosphaeria dothidea [1] = experiment: In-vitro inoculation of sorbitol-soaked mature "Red delicious" apple fruits with ring rot fungus
Experimental: (§1) A fungus block of Botrvosphaeria dothidea was inoculated in a potato dextrose agar (PDA) medium by a puncher having a diameter of 5 mm, and inverted and cultured in the dark at 28° C. for 10 days.
S21: An in-vitro inoculation method was adopted for identifying disease resistance of the “Red delicious” apple fruits; and 6 treatments were set as follows:
S22: Surfaces of mature “Red delicious” fruits (within 140 days after flowering) were disinfected with 0.1% of sodium hypochlorite; and the fruits were fully washed with sterilized deionized water, aired and stood at 25° C. for 12 h for later use.
S23: The “Red delicious” fruits of the same size were selected and respectively soaked in the sterilized deionized water, the sorbitol solution of 100 mM, the sorbitol solution of 150 mM, the sorbitol solution of 200 mM and the sorbitol solution of 300 mM; and 10 fruits were treated in each treatment. The apples were taken out within 3 h after treatment; surface liquid was wiped up; middle parts of the surfaces of the apple fruits were punctured by sterilized toothpicks at a depth of 5 mm: 0.02 g of Botryosphaeria. dothidea hyphae having vigorous and consistent growth within 10 days was added into the punctured parts; and the single pathogenic fungus inoculation treatment was taken as control. After inoculation, the “Red delicious” fruits were cultured in a thermostatic incubator at 28° C. in the dark. A disease spot diameter served as a measurement standard of the incidence degree of the apple fruits; diameters of 5 points of each disease spot were measured; and the mean value was taken as the result. Since 3 d after treatment, disease spot diameters of the apple fruits in different treatments were photographed and recorded every day; and the diameters were continuously recorded for 4 d. A significance level of disease spot size differences among the treatment groups was calculated according to analysis of variance.

Botryosphaeria dothidea [2] = experiment: In-vitro inoculation of sorbitol-soaked mature "Fuji" apple fruits with ring rot fungus
Experimental: as §1
S31: An in-vitro inoculation method was adopted for identifying disease resistance of the “Fuji” apple fruits; and 6 treatments were set as follows:
S32: Surfaces of mature “Fuji” fruits (within 180 days after flowering) were disinfected with 0.1% of sodium hypochlorite; and the fruits were fully washed with sterilized deionized water, aired and stood at 25° C. for 12 h for later use.
S33: The “Fuji” fruits of the same size were selected and respectively soaked in the sterilized deionized water, the sorbitol solution of 100 mM, the sorbitol solution of 150 mM, the sorbitol solution of 200 mM and the sorbitol solution of 300 mM; and 10 fruits were treated in each treatment. The apples were taken out within 3 h after treatment; surface liquid was wiped up; middle parts of the surfaces of the apple fruits were punctured by sterilized toothpicks at a depth of 5 mm; 0.02 g of Botryosphaeria dothidea hyphae having vigorous and consistent growth within 10 days was added into the punctured parts; and the single pathogenic fungus inoculation treatment was taken as control. After inoculation, the “Fuji” fruits were cultured in a thermostatic incubator at 28° C. in the dark. A disease spot diameter served as a measurement standard of the incidence degree of the apple fruits; diameters of 5 points of each disease spot were measured; and the mean value was taken as the result. Since 3 d after treatment, disease spot diameters of the apple fruits in different treatments were photographed and recorded every day; and the diameters were continuously recorded for 4 d. A significance level of disease spot size differences among the treatment groups was calculated according to analysis of variance.

Botryosphaeria dothidea [3] = experiment: In-vitro inoculation of sorbitol-soaked mature "Gala" apple fruits with ring rot fungus
Experimental: as §1
S41: An in-vitro inoculation method was adopted for identifying disease resistance of the “Gala” apple fruits, and 6 treatments were set as follows:
S42: Surfaces of mature “Gala” fruits (within 120 days after flowering) were disinfected with 0.1% of sodium hypochlorite; and the fruits were fully washed with sterilized deionized water, aired and stood at 25° C. for 12 h for later use.
S43: The “Gala” fruits of the same size were selected and respectively soaked in the sterilized deionized water, the sorbitol solution of 100 mM, the sorbitol solution of 150 mM, the sorbitol solution of 200 mM and the sorbitol solution of 300 mM; and 10 fruits were treated in each treatment. The apples were taken out within 3 h after treatment; surface liquid was wiped up; middle parts of the surfaces of the apple fruits were punctured by sterilized toothpicks at a depth of 5 mm; 0.02 g of Botryosphaeria dothidea hyphae having vigorous and consistent growth within 10 days was added into the punctured parts; and the single pathogenic fungus inoculation treatment was taken as control. After inoculation, the “Gala” fruits were cultured in a thermostatic incubator at 28° C. in the dark. A disease spot diameter served as a measurement standard of the incidence degree of the apple fruits; diameters of 5 points of each disease spot were measured; and the mean value was taken as the result. Since 3 d after treatment, disease spot diameters of the apple fruits in different treatments were photographed and recorded every day; and the diameters were continuously recorded for 4 d. A significance level of disease spot size differences among the treatment groups was calculated according to analysis of variance.

Botryosphaeria dothidea [4] = experiment: In-vitro inoculation of sorbitol-soaked mature "Golden delicious" apple fruits with ring rot fungus
Experimental: as §1
S51: An in-vitro inoculation method was adopted for identifying disease resistance of the “Golden delicious” apple fruits; and 6 treatments were set as follows:
S52: Surfaces of mature “Golden delicious” fruits (within 135 days after flowering) were disinfected with 0.1% of sodium hypochlorite; and the fruits were fully washed with sterilized deionized water, aired and stood at 25° C. for 12 h for later use.
S53: The “Golden delicious” fruits of the same size were selected and respectively soaked in the sterilized deionized water, the sorbitol solution of 100 mM, the sorbitol solution of 150 mM, the sorbitol solution of 200 mM and the sorbitol solution of 300 mM; and 10 fruits were treated in each treatment. The apples were taken out within 3 h after treatment; surface liquid was wiped up; middle parts of the surfaces of the apple fruits were punctured by sterilized toothpicks at a depth of 5 mm; 0.02 g of Botryosphaeria dothidea hyphae having vigorous and consistent growth within 10 days was added into the punctured parts; and the single pathogenic fungus inoculation treatment was taken as control. After inoculation, the “Golden delicious” fruits were cultured in a thermostatic incubator at 28° C. in the dark. A disease spot diameter served as a measurement standard of the incidence degree of the apple fruits; diameters of 5 points of each disease spot were measured; and the mean value was taken as the result. Since 3 d after treatment, disease spot diameters of the apple fruits in different treatments were photographed and recorded every day; and the diameters were continuously recorded for 4 d. A significance level of disease spot size differences among the treatment groups was calculated according to analysis of variance.

[5] = sorbitol solution of 200 mM, soak 3 h, 6 d after inoculation
[6] = sorbitol solution of 300 mM, 6 d after inoculation
[7] = sorbitol solution soak 3 h, 3-6 d after inoculation

In the case of `OC[C@@H](O)[C@@H](O)[C@H](O)[C@@H](O)CO` [sorbitol, D-Sorbitol], the optimum treatment concentration (Botryosphaeria dothidea [1]) is reported as 200 mM, the disease spot diameter (Botryosphaeria dothidea [1]; [5]) is reported as 0.76 cm and the “disease spot diameter versus 200 mM treatment” value (Botryosphaeria dothidea [1]; [6]) is reported as “no significant difference”. For the same compound, the “increase rate of the disease spot diameters compared with the control” value (shortened to “increase rate”) (Botryosphaeria dothidea [1]; [7]) was “significantly decreased”, the optimum treatment concentration (Botryosphaeria dothidea [2]) was 150 mM and the disease spot diameter (Botryosphaeria dothidea [2]; sorbitol solution of 150 mM, soak 3 h, 6 d after inoculation) was 1.86 cm. For the same compound, the “disease spot diameter versus 150 mM treatment” value (Botryosphaeria dothidea [2]; sorbitol solution of 200 mM, 6 d after inoculation) was “no significant difference”, the “disease spot diameter versus 150 mM treatment” value (Botryosphaeria dothidea [2]; [6]) was “no significant difference” and the “increase rate” value (Botryosphaeria dothidea [2]; [7]) was “significantly decreased”. The optimum treatment concentration (Botryosphaeria dothidea [3]) was 200 mM, the “average disease spot diameter” value (Botryosphaeria dothidea [3]; [5]) was 1.89 cm and the “disease spot diameter versus 200 mM treatment” value (Botryosphaeria dothidea [3]; [6]) was “no significant difference”. For the same compound, the “increase rate” value (Botryosphaeria dothidea [3]; [7]) was “significantly decreased”, the optimum treatment concentration (Botryosphaeria dothidea [4]) was 200 mM and the “average disease spot diameter” value (Botryosphaeria dothidea [4]; [5]) was 1.70 cm. For the same compound, the “disease spot diameter versus 200 mM treatment” value (Botryosphaeria dothidea [4]; [6]) was “no significant difference” and the “increase rate” value (Botryosphaeria dothidea [4]; [7]) was “significantly decreased”.
